The term AC50 denotes the midpoint of the concentration-response curve, whichever way the signal moves.

This test deals with T1, human PAH with the R408W mutation (A375 R408W cells) (Homo sapiens, UniProt P00439, R408W).
T1 construct: expressed in transfected cells
T1 sequence (P00439 1-452 R408W): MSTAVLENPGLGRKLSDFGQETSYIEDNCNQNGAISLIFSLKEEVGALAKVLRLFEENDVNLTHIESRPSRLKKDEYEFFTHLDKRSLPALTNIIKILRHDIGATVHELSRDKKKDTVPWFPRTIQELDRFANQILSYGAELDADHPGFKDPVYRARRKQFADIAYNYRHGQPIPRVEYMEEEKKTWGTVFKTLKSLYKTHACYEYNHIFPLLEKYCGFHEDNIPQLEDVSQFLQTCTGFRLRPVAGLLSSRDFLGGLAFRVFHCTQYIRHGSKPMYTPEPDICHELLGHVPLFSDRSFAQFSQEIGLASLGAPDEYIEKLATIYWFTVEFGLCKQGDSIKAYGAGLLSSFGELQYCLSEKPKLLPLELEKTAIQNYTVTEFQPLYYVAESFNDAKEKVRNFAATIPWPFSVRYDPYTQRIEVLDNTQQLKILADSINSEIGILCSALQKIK
Description: Cell Based Phenylalanine Flux Assay. Particulars: A375 R408W cells; 24 hrs with compound, then 20 μM sepiapterin and 800 μM 13C9,15N-Phenylalanine for 4 hours; 13C-Tyrosine by LC-MS; average where tested multiple times. The procedure, abridged: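 AC50 is derived from LC-MS of 13C-tyrosine in the media after a 4 h pulse of 800 μM 13C9,15N-phenylalanine plus 20 μM sepiapterin. The A375 R408W PAH cells had received duplicate 10-point, 2-fold compound dilutions (0.5% DMSO) for 24 h beforehand.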
For `O=C(c1oc(-c2ccc(C(F)(F)F)cn2)nc1C(F)F)N1CCc2[nH]cnc2[C@H]1c1nc2cccc(F)c2o1` [Example 633, (S)-(4-(difluoromethyl)-2-(5-(trifluoromethyl)pyridin-2-yl)oxazol-5-yl)(4-(7-fluorobenzo[d]oxazol-2-yl)-6,7-dihydro-1H-imidazo[4,5-c]pyridin-5(4H)-yl)methanone], the AC50 was at most 500 nM. As for `O=C(c1oc(-c2ccc(C(F)(F)F)cn2)nc1C(F)F)N1CCc2[nH]cnc2[C@@H]1c1nc2cccc(F)c2o1` [Example 634, (R)-(4-(difluoromethyl)-2-(5-(trifluoromethyl)pyridin-2-yl)oxazol-5-yl)(4-(7-fluorobenzo[d]oxazol-2-yl)-6,7-dihydro-1H-imidazo[4,5-c]pyridin-5(4H)-yl)methanone], the figure is at most 500 nM. As to `Cn1cc(-c2nc(C(F)F)c(C(=O)N3CCc4[nH]cnc4[C@@H]3c3nc4cccc(F)c4o3)o2)cn1` [Example 635, (R)-(4-(difluoromethyl)-2-(1-methyl-1H-pyrazol-4-yl)oxazol-5-yl)(4-(7-fluorobenzo[d]oxazol-2-yl)-6,7-dihydro-1H-imidazo[4,5-c]pyridin-5(4H)-yl)methanone], the AC50 was in the range of 500 to 1000 nM. For the compound `Cn1cc(-c2nc(C(F)F)c(C(=O)N3CCc4[nH]cnc4[C@H]3c3nc4cccc(F)c4o3)o2)cn1` [Example 636, (S)-(4-(difluoromethyl)-2-(1-methyl-1H-pyrazol-4-yl)oxazol-5-yl)(4-(7-fluorobenzo[d]oxazol-2-yl)-6,7-dihydro-1H-imidazo[4,5-c]pyridin-5(4H)-yl)methanone], the AC50 is at most 500 nM. On to `O=C(c1oc(-c2ccccn2)nc1C(F)(F)F)N1CCc2[nH]cnc2[C@@H]1c1nc2cccc(F)c2o1` [Example 637, (R)-(4-(7-fluorobenzo[d]oxazol-2-yl)-6,7-dihydro-1H-imidazo[4,5-c]pyridin-5(4H)-yl)(2-(pyridin-2-yl)-4-(trifluoromethyl)oxazol-5-yl)methanone], for which the AC50 is at most 500 nM. Next, `O=C(c1oc(-c2ccccn2)nc1C(F)(F)F)N1CCc2[nH]cnc2[C@H]1c1nc2cccc(F)c2o1` [Example 638, (S)-(4-(7-fluorobenzo[d]oxazol-2-yl)-6,7-dihydro-1H-imidazo[4,5-c]pyridin-5(4H)-yl)(2-(pyridin-2-yl)-4-(trifluoromethyl)oxazol-5-yl)methanone]: at most 500 nM; `COc1cccc2oc([C@@H]3c4nc[nH]c4CCN3C(=O)c3nnc(-c4ccn(C)n4)o3)nc12` [Example 639, (S)-(4-(4-methoxybenzo[d]oxazol-2-yl)-6,7-dihydro-1H-imidazo[4,5-c]pyridin-5(4H)-yl)(5-(1-methyl-1H-pyrazol-3-yl)-1,3,4-oxadiazol-2-yl)methanone]: at most 500 nM; `COc1cccc2oc([C@H]3c4nc[nH]c4CCN3C(=O)c3nnc(-c4ccn(C)n4)o3)nc12` [Example 640, (R)-(4-(4-methoxybenzo[d]oxazol-2-yl)-6,7-dihydro-1H-imidazo[4,5-c]pyridin-5(4H)-yl)(5-(1-methyl-1H-pyrazol-3-yl)-1,3,4-oxadiazol-2-yl)methanone]: 1000 to 5000 nM. As for `Cn1cnc(-c2nc(C(F)F)c(C(=O)N3CCc4[nH]cnc4[C@H]3c3nc4cc(F)ccc4o3)o2)c1` [Example 641, (S)-(4-(difluoromethyl)-2-(1-methyl-1H-imidazol-4-yl)oxazol-5-yl)(4-(5-fluorobenzo[d]oxazol-2-yl)-6,7-dihydro-1H-imidazo[4,5-c]pyridin-5(4H)-yl)methanone], the AC50 is at most 500 nM.

For `Cn1cnc(-c2nc(C(F)F)c(C(=O)N3CCc4[nH]cnc4[C@@H]3c3nc4cc(F)ccc4o3)o2)c1` [Example 642, (R)-(4-(difluoromethyl)-2-(1-methyl-1H-imidazol-4-yl)oxazol-5-yl)(4-(5-fluorobenzo[d]oxazol-2-yl)-6,7-dihydro-1H-imidazo[4,5-c]pyridin-5(4H)-yl)methanone], the AC50 was in the range of 1000 to 5000 nM. As for `COc1cc(F)c2oc([C@@H]3c4nc[nH]c4CCN3C(=O)c3oc(C(C)(C)O)nc3C(F)F)nc2c1` [Example 643, (S)-(4-(difluoromethyl)-2-(2-hydroxypropan-2-yl)oxazol-5-yl)(4-(7-fluoro-5-methoxybenzo[d]oxazol-2-yl)-6,7-dihydro-1H-imidazo[4,5-c]pyridin-5(4H)-yl)methanone], the AC50 was at most 500 nM. Next, `COc1cc(F)c2oc([C@H]3c4nc[nH]c4CCN3C(=O)c3oc(C(C)(C)O)nc3C(F)F)nc2c1` [Example 644, (R)-(4-(difluoromethyl)-2-(2-hydroxypropan-2-yl)oxazol-5-yl)(4-(7-fluoro-5-methoxybenzo[d]oxazol-2-yl)-6,7-dihydro-1H-imidazo[4,5-c]pyridin-5(4H)-yl)methanone]: at most 500 nM; `Cn1cc(-c2nnc(C(=O)N3CCc4[nH]cnc4[C@H]3c3nc4c(F)c(F)ccc4o3)o2)cn1` [Example 645, (S)-(4-(4,5-difluorobenzo[d]oxazol-2-yl)-6,7-dihydro-1H-imidazo[4,5-c]pyridin-5(4H)-yl)(5-(1-methyl-1H-pyrazol-4-yl)-1,3,4-oxadiazol-2-yl)methanone]: 1000 to 5000 nM.

Take `Cn1cc(-c2nnc(C(=O)N3CCc4[nH]cnc4[C@@H]3c3nc4c(F)c(F)ccc4o3)o2)cn1` [Example 646, (R)-(4-(4,5-difluorobenzo[d]oxazol-2-yl)-6,7-dihydro-1H-imidazo[4,5-c]pyridin-5(4H)-yl)(5-(1-methyl-1H-pyrazol-4-yl)-1,3,4-oxadiazol-2-yl)methanone]: the AC50 was in the range of 1000 to 5000 nM. For `O=C(c1oc(N2CCOCC2)nc1C(F)F)N1CCc2[nH]cnc2[C@@H]1c1nc2cccc(F)c2o1` [Example 647, (R)-(4-(difluoromethyl)-2-morpholinooxazol-5-yl)(4-(7-fluorobenzo[d]oxazol-2-yl)-6,7-dihydro-1H-imidazo[4,5-c]pyridin-5(4H)-yl)methanone], the AC50 is 500 to 1000 nM. In the case of `O=C(c1oc(N2CCOCC2)nc1C(F)F)N1CCc2[nH]cnc2[C@H]1c1nc2cccc(F)c2o1` [Example 648, (S)-(4-(difluoromethyl)-2-morpholinooxazol-5-yl)(4-(7-fluorobenzo[d]oxazol-2-yl)-6,7-dihydro-1H-imidazo[4,5-c]pyridin-5(4H)-yl)methanone], the AC50 is at most 500 nM. Consider `CC(F)(F)c1ncoc1C(=O)N1CCc2[nH]cnc2[C@H]1c1nc2ccc(F)cc2o1` [Example 649, (S)-(4-(1,1-difluoroethyl)oxazol-5-yl)(4-(6-fluorobenzo[d]oxazol-2-yl)-6,7-dihydro-1H-imidazo[4,5-c]pyridin-5(4H)-yl)methanone], for which the AC50 is at most 500 nM. Consider `CC(F)(F)c1ncoc1C(=O)N1CCc2[nH]cnc2[C@@H]1c1nc2ccc(F)cc2o1` [Example 650, (R)-(4-(1,1-difluoroethyl)oxazol-5-yl)(4-(6-fluorobenzo[d]oxazol-2-yl)-6,7-dihydro-1H-imidazo[4,5-c]pyridin-5(4H)-yl)methanone], for which the AC50 was 500 to 1000 nM.

For the compound `CC(F)(F)c1ncoc1C(=O)N1CCc2[nH]cnc2[C@H]1c1nc2c(F)cccc2o1` [Example 651, (S)-(4-(1,1-difluoroethyl)oxazol-5-yl)(4-(4-fluorobenzo[d]oxazol-2-yl)-6,7-dihydro-1H-imidazo[4,5-c]pyridin-5(4H)-yl)methanone], the AC50 was at most 500 nM. Next, `CC(F)(F)c1ncoc1C(=O)N1CCc2[nH]cnc2[C@@H]1c1nc2c(F)cccc2o1` [Example 652, (R)-(4-(1,1-difluoroethyl)oxazol-5-yl)(4-(4-fluorobenzo[d]oxazol-2-yl)-6,7-dihydro-1H-imidazo[4,5-c]pyridin-5(4H)-yl)methanone]: 1000 to 5000 nM. Consider `Cc1ccc2oc([C@@H]3c4nc[nH]c4CCN3C(=O)c3nnc(-c4ncccc4F)o3)nc2c1` [Example 653, (S)-(5-(3-fluoropyridin-2-yl)-1,3,4-oxadiazol-2-yl)(4-(5-methylbenzo[d]oxazol-2-yl)-6,7-dihydro-1H-imidazo[4,5-c]pyridin-5(4H)-yl)methanone], for which the AC50 was at most 500 nM. Take `Cc1ccc2oc([C@H]3c4nc[nH]c4CCN3C(=O)c3nnc(-c4ncccc4F)o3)nc2c1` [Example 654, (R)-(5-(3-fluoropyridin-2-yl)-1,3,4-oxadiazol-2-yl)(4-(5-methylbenzo[d]oxazol-2-yl)-6,7-dihydro-1H-imidazo[4,5-c]pyridin-5(4H)-yl)methanone]: the AC50 lay in the range of 1000 to 5000 nM.

As to `Cc1cc(F)cc2nc([C@@H]3c4nc[nH]c4CCN3C(=O)c3oc(C(C)(C)O)nc3C(F)F)oc12` [Example 655, (S)-(4-(difluoromethyl)-2-(2-hydroxypropan-2-yl)oxazol-5-yl)(4-(5-fluoro-7-methylbenzo[d]oxazol-2-yl)-6,7-dihydro-1H-imidazo[4,5-c]pyridin-5(4H)-yl)methanone], the AC50 is at most 500 nM. As for `Cc1cc(F)cc2nc([C@H]3c4nc[nH]c4CCN3C(=O)c3oc(C(C)(C)O)nc3C(F)F)oc12` [Example 656, (R)-(4-(difluoromethyl)-2-(2-hydroxypropan-2-yl)oxazol-5-yl)(4-(5-fluoro-7-methylbenzo[d]oxazol-2-yl)-6,7-dihydro-1H-imidazo[4,5-c]pyridin-5(4H)-yl)methanone], the concentration at half-maximal activity (AC50) fell in the range of 1000 to 5000 nM.

Source of the values: patent publication US20250171437A1 (Agios Pharmaceuticals,Inc., priority 2022, published 2025).
